Holding throughout (assay): growth of human tumour cells (NCI), 48 h
Test [1] concerns SK-MEL-28 melanoma.
Test [2] deals with OVCAR-3 ovarian.
Test [3] deals with SR leukemia.
Test [4] concerns HCT-15 colon.
Test [5] relates to LOX IMVI melanoma.
Test [6] relates to NCI-H460 lung.
Test [7] deals with SNB-19 CNS.
In test [8] the test system is A498 renal.
In test [9] the test system is SF-295 CNS.
The subject of test [10] is HOP-92 NSCLC.

The record followed here is PubChem BioAssay (NCI).

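48-hour exposure; five concentrations; linearly interpolated endpoints. GI50 = concentration required for 50% inhibition of growth. TGI marks complete inhibition of growth.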 Where only a bound is given, the exact number is not on record here.

For `NS(=O)(=O)c1ccccc1C(=O)N/N=C(\c1nc2ccc([N+](=O)[O-])cc2[nH]c1=O)C(O)c1ccc([N+](=O)[O-])cc1` (stereo not given), the TGI in test [1], in test [2], in test [3], in test [4], in test [5] and in [6] was over 100 µM in each case. Further, the TGI in test [7], in test [8], in test [9] and in test [10] was over 100 µM throughout.

Regarding `CC[C@@]12CCCN3CC[C@]4(c5cccc(OC)c5N(C(C)=O)[C@@H]4CC1)[C@H]32`, the TGI in [1] was over 100 µM; in test [2], over 100 µM; in test [3], 55.9 µM; in test [4], over 100 µM; in test [5] it was over 100 µM; in test [6], over 100 µM. The TGI in [7], in test [8], in [9] and in test [10] was over 100 µM throughout.

As for `CCc1ccc2c(c1)C(=O)c1c-2n(CCCBr)c(=O)c2cc([N+](=O)[O-])ccc12`, the GI50 is over 50 µM in test [1]; over 50 µM in [2]; 19.1 µM in test [3]; over 50 µM in [4]; over 50 µM in test [5]; over 50 µM in test [6]. The GI50 was 30.8 µM in test [7], over 50 µM in test [8], 36.5 µM in [9] and 16 µM in [10]. Moreover, the TGI in test [1], in test [2], in [3], in test [4], in test [5] and in test [6] was over 50 µM throughout. For the same molecule, the TGI in [7], in test [8], in test [9] and in [10] was over 50 µM in each case.

For the molecule `NC(CSC(c1ccccc1)(c1ccccc1)c1ccc2c(c1)OCO2)C(=O)O` (stereo not given), the GI50 was 0.799 µM in [1]; 0.512 µM in test [2]; 0.285 µM in [3]; 1.15 µM in [4]; 0.577 µM in [5]; 0.375 µM in [6]. Moreover, the GI50 is 0.665 µM in [7], 0.518 µM in test [8], 0.352 µM in test [9] and 0.75 µM in test [10]. Further, the TGI is 98.5 µM in test [1]; 16.4 µM in test [2]; 0.868 µM in test [3]; over 81 µM in [4]; over 43.6 µM in [5]; over 40 µM in test [6]. Also, the TGI in test [7] was over 100 µM; in test [8] it was 30.5 µM; in test [9] it was over 48.4 µM; in test [10], 36.9 µM.

Turning to `O=C(/C=C/c1ccccc1Cl)c1ccc(Cl)c(Cl)c1`, the TGI in test [1] is 40.4 µM; in test [2], 28.7 µM; in test [3], 54.8 µM; in [4], 32.2 µM; in [5], 28 µM; in [6] it was over 100 µM. Moreover, the TGI was 29.9 µM in test [7], 33.9 µM in test [8], 31.3 µM in [9] and 58.1 µM in test [10].

Turning to `Nc1cc2nc3ccccc3sc-2cc1=O`, the GI50 in [1] was 2.12 µM; in test [2], 1.76 µM; in test [3], 4.27 µM; in [4], 1.44 µM; in [5] it was 1.48 µM; in test [6], 2.9 µM. Besides, the GI50 in test [7] was 6.13 µM; in [8], 2.32 µM; in [9], 2.44 µM; in test [10], 2.77 µM. Besides, the TGI is 4.04 µM in test [1]; 7.09 µM in test [2]; over 100 µM in test [3]; 11.1 µM in [4]; 3.74 µM in test [5]; 10.2 µM in [6]. Also, the TGI in [7] turned out to be 20 µM; in [8], 8.71 µM; in [9], 7.35 µM; in test [10], 9.59 µM.

For `Cc1cc2nc(C(Cl)Cl)nc(-c3ccc(Cl)cc3)n2n1`, the GI50 in test [1] was 1.63 µM; in test [2], 0.491 µM; in [3], 0.372 µM; in test [4], 0.745 µM; in test [5] it was 3.95 µM; in [6] it was 0.304 µM. Also, the GI50 in test [7] was 1.05 µM; in test [8] it was 1.09 µM; in test [9], 1.3 µM; in test [10] it was 1.53 µM. Also, the TGI in [1] was 3.38 µM; in test [2] it was 1.87 µM; in test [3] it was over 21.1 µM; in [4], 3.47 µM; in test [5] it was over 100 µM; in test [6], 1.09 µM. Further, the TGI in test [7] turned out to be 4.64 µM; in test [8], 2.65 µM; in test [9] it was 4.75 µM; in test [10] it was 4.66 µM.

With `COc1ccc2nc3cc(Cl)ccc3c(Sc3ccccc3[N+](=O)[O-])c2c1`, the TGI in test [1], in test [2], in [3], in [4], in [5] and in [6] was over 100 µM throughout. The TGI in [7], in test [8], in [9] and in test [10] was over 100 µM throughout.

`O=C1c2cccnc2-c2nc(-c3ccccc3[N+](=O)[O-])cc3c2c1nc1ccccc13`: the GI50 in [1] was 27.6 µM; in [2] it was 0.432 µM; in [3], 96.1 µM; in test [4] it was 12 µM; in [5], 2.84 µM; in [6], 12 µM. Also, the GI50 is 24.2 µM in test [7], over 77.3 µM in test [8], 25.9 µM in test [9] and 8.7 µM in test [10]. In addition, the TGI was over 63.5 µM in test [1]; over 32.4 µM in test [2]; over 100 µM in [3]; 32.9 µM in test [4]; 13.7 µM in [5]; 33.8 µM in test [6]. Further, the TGI in test [7] was 84.7 µM; in test [8], over 100 µM; in test [9], over 85.9 µM; in test [10] it was over 100 µM.
